We go through 7 compounds from PubChem BioAssay AID1259407 (Chemical Carcinogenesis Research Information System (CCRIS), 2018).

Molecules are shown by their SMILES. The source made the active and inactive calls. No rule for the calls is given here.

The data set has as its system CCRIS mutagenicity, Ames/micronucleus/aberration tests. In words: CCRIS mutagenicity studies.
Where [1] appears, read: Test System: AMES SALMONELLA TYPHIMURIUM, Strain/Indicator: TA98, Metabolic Activation: NONE, Method: STANDARD PLATE.
Setting [2] is: Test System: AMES SALMONELLA TYPHIMURIUM, Strain/Indicator: TA100, Metabolic Activation: NONE, Method: STANDARD PLATE.
[3] abbreviates: Test System: AMES SALMONELLA TYPHIMURIUM, Strain/Indicator: TA100, Metabolic Activation: RAT, LIVER, S-9, AROCLOR 1254, Method: STANDARD PLATE.
[4] abbreviates: Test System: AMES SALMONELLA TYPHIMURIUM, Strain/Indicator: TA1538, Metabolic Activation: NONE, Method: STANDARD PLATE.
Where [5] appears, read: Test System: AMES SALMONELLA TYPHIMURIUM, Strain/Indicator: TA98, Metabolic Activation: RAT, LIVER, S-9, AROCLOR 1254, Method: STANDARD PLATE.
Setting [6] is: Test System: AMES SALMONELLA TYPHIMURIUM, Strain/Indicator: TA98, Metabolic Activation: NONE, Method: PREINCUBATION
[7] abbreviates: Test System: AMES SALMONELLA TYPHIMURIUM, Strain/Indicator: TA100, Metabolic Activation: NONE, Method: PREINCUBATION

Take `Cc1ccc(C(C)(C)C)c(O)c1C(O)c1ncc([N+](=O)[O-])n1C` (stereo unspecified): the mutagenic call by setting is: under setting [1], “inactive; negative”; (Test System: AMES SALMONELLA TYPHIMURIUM, Strain/Indicator: TA 98, Metabolic Activation: RAT, LIVER, S-9, AROCLOR 1254, Method: STANDARD PLATE) “inactive; negative”; under setting [2], “inactive; negative”; under setting [3], “inactive; negative”; (Test System: AMES SALMONELLA TYPHIMURIUM, Strain/Indicator: TA1535, Metabolic Activation: NONE, Method: STANDARD PLATE) “inactive; negative”; (Test System: AMES SALMONELLA TYPHIMURIUM, Strain/Indicator: TA1535, Metabolic Activation: RAT, LIVER, S-9, AROCLOR 1254, Method: STANDARD PLATE) “inactive; negative”. Moreover, the mutagenic call by setting is: (Test System: AMES SALMONELLA TYPHIMURIUM, Strain/Indicator: TA1537, Metabolic Activation: NONE, Method: STANDARD PLATE) “inactive; negative”; (Test System: AMES SALMONELLA TYPHIMURIUM, Strain/Indicator: TA1537, Metabolic Activation: RAT, LIVER, S-9, AROCLOR 1254, Method: STANDARD PLATE) “inactive; negative”; under setting [4], “inactive; negative”; (Test System: AMES SALMONELLA TYPHIMURIUM, Strain/Indicator: TA1538, Metabolic Activation: RAT, LIVER, S-9, AROCLOR 1254, Method: STANDARD PLATE) “inactive; negative”.
Consider `c1ccc2c(c1)cc1ccc3c4ccccc4cc4ccc2c1c43`, for which the mutagenic call (Test System: HUMAN H1A1V2 CELLS, Strain/Indicator: TK LOCUS, Metabolic Activation: NONE, Method: SUSPENSION/PLATE) was “active; positive”.
For `CC1=C(/C=C/C(C)=C/C=C/C(C)=C/C=C/C=C(C)/C=C/C=C(C)/C=C/C2=C(C)C(=O)CCC2(C)C)C(C)(C)CCC1=O`, the mutagenic call runs as follows: under setting [1], “inactive; negative”; under setting [5], “inactive; negative”; under setting [2], “inactive; negative”; under setting [3], “inactive; negative”.
Consider `CCOCCOC(C)=O`, for which the mutagenic call is, setting by setting: under setting [6], “inactive; negative”; (Test System: AMES SALMONELLA TYPHIMURIUM, Strain/Indicator: TA98, Metabolic Activation: RAT LIVER S-9, PHENOBARBITAL AND BETA-NAPHTHOFLAVONE, Method: PREINCUBATION) “inactive; negative”; under setting [7], “inactive; negative”; (Test System: AMES SALMONELLA TYPHIMURIUM, Strain/Indicator: TA100, Metabolic Activation: RAT LIVER S-9, PHENOBARBITAL AND BETA-NAPHTHOFLAVONE, Method: PREINCUBATION) “inactive; negative”; (Test System: AMES SALMONELLA TYPHIMURIUM, Strain/Indicator: TA102, Metabolic Activation: NONE, Method: PREINCUBATION) “inactive; negative”; (Test System: AMES SALMONELLA TYPHIMURIUM, Strain/Indicator: TA102, Metabolic Activation: RAT LIVER S-9, PHENOBARBITAL AND BETA-NAPHTHOFLAVONE, Method: PREINCUBATION) “inactive; negative”. Also, the mutagenic call (Test System: AMES SALMONELLA TYPHIMURIUM, Strain/Indicator: TA104, Metabolic Activation: NONE, Method: PREINCUBATION) was “inactive; negative”; the mutagenic call (Test System: AMES SALMONELLA TYPHIMURIUM, Strain/Indicator: TA104, Metabolic Activation: RAT LIVER S-9, PHENOBARBITAL AND BETA-NAPHTHOFLAVONE, Method: PREINCUBATION) is “inactive; negative”; the mutagenic call (Test System: AMES SALMONELLA TYPHIMURIUM, Strain/Indicator: TA1535, Metabolic Activation: NONE, Method: PREINCUBATION) is “inactive; negative”; the mutagenic call (Test System: AMES SALMONELLA TYPHIMURIUM, Strain/Indicator: TA1535, Metabolic Activation: RAT LIVER S-9, PHENOBARBITAL AND BETA-NAPHTHOFLAVONE, Method: PREINCUBATION) is “inactive; negative”; the mutagenic call (Test System: AMES SALMONELLA TYPHIMURIUM, Strain/Indicator: TA1537, Metabolic Activation: NONE, Method: PREINCUBATION) was “inactive; negative”; the mutagenic call (Test System: AMES SALMONELLA TYPHIMURIUM, Strain/Indicator: TA1537, Metabolic Activation: RAT LIVER S-9, PHENOBARBITAL AND BETA-NAPHTHOFLAVONE, Method: PREINCUBATION) is “inactive; negative”. Also, the mutagenic call is, setting by setting: (Test System: E.COLI, Strain/Indicator: WP2UVRA/PKM101, Metabolic Activation: NONE, Method: PREINCUBATION) “inactive; negative”; (Test System: E.COLI, Strain/Indicator: WP2UVRA/PKM101, Metabolic Activation: RAT LIVER S-9, PHENOBARBITAL AND BETA-NAPHTHOFLAVONE, Method: PREINCUBATION) “inactive; negative”; (Test System: E.COLI, Strain/Indicator: WP2UVRA, Metabolic Activation: NONE, Method: PREINCUBATION) “inactive; negative”; (Test System: E.COLI, Strain/Indicator: WP2UVRA, Metabolic Activation: RAT LIVER S-9, PHENOBARBITAL AND BETA-NAPHTHOFLAVONE, Method: PREINCUBATION) “inactive; negative”.
Consider `Cc1c(N)cccc1N=Nc1cccc(N)c1C`, for which the mutagenic call under setting [6] was “inactive; negative”; the mutagenic call (Test System: AMES SALMONELLA TYPHIMURIUM, Strain/Indicator: TA98, Metabolic Activation: RAT, LIVER, S-9, PHENOBARBITAL AND 5,6-BENZOFLAVONE, Method: PREINCUBATION) was “active; positive”; the mutagenic call under setting [7] was “inactive; negative”; the mutagenic call (Test System: AMES SALMONELLA TYPHIMURIUM, Strain/Indicator: TA100, Metabolic Activation: RAT, LIVER, S-9, PHENOBARBITAL AND 5,6-BENZOFLAVONE, Method: PREINCUBATION) was “active; positive”.
Regarding `O=C1C=C2C(=CCOC2O)O1` (stereo unspecified), the mutagenic call is, setting by setting: (End Point: In vitro micronucleus, Test System: Human hepatoma HepG2 cells, Metabolic Activation: None) “active; positive. depletion of glutathione increased patulin-induced micronuclei frequen”; (Test System: AMES SALMONELLA TYPHIMURIUM, Strain/Indicator: TA98, Metabolic Activation: RAT, LIVER, MICROSOMES, PHENOBARBITAL, Method: STANDARD PLATE) “inactive; negative”; under setting [7], “inactive; negative”; (Test System: AMES SALMONELLA TYPHIMURIUM, Strain/Indicator: TA100, Metabolic Activation: RAT, LIVER, MICROSOMES, PHENOBARBITAL, Method: STANDARD PLATE) “inactive; negative”; (Test System: AMES SALMONELLA TYPHIMURIUM, Strain/Indicator: TA100, Metabolic Activation: RAT, LIVER, S-9, PHENOBARBITAL, Method: PREINCUBATION) “inactive; negative”; (Test System: AMES SALMONELLA TYPHIMURIUM, Strain/Indicator: TA102, Metabolic Activation: NONE, Method: STANDARD PLATE) “inactive; negative”. Further, where the note is “Test System: AMES SALMONELLA TYPHIMURIUM, Strain/Indicator: TA102, Metabolic Activation: RAT, LIVER, S-9, AROCLOR 1254, Method: STANDARD PLATE”, the mutagenic call was “inactive; negative”.
As for `COc1cccc2c1C(=O)c1c(O)c3c(c(O)c1C2=O)C[C@@](O)(C(C)=O)C[C@@H]3O`, the mutagenic call runs as follows: under setting [1], “active; positive”; under setting [5], “active; positive”; under setting [2], “inactive; negative”; under setting [4], “inactive; negative”.
